These results are taken from the NIST ThermoML archive (doi:10.1016/j.fluid.2005.07.010).

The conditions of the series: Liquid; for mass density / viscosity: 298.15 K, 101.33 kPa; for Normal boiling temperature: Ebulliometric method (Recirculating still).

± gives the expanded uncertainty stated by the source.

Regarding `CC(=O)O` [acetic acid], the mass density amounted to 1043.6 ± 0.6 kg/m3, the viscosity was 1.115 ± 0.035 mPa·s and the Normal boiling temperature came out at 117.80 ± 0.2 °C.
Consider `CCOC(C)=O` [ethyl acetate], for which the mass density was determined as 894.4 ± 0.4 kg/m3, the viscosity was determined as 0.426 ± 0.016 mPa·s and the Normal boiling temperature turned out to be 77.12 ± 0.2 °C.
Consider `CCO` [ethanol], for which the mass density was found to be 785.4 ± 0.6 kg/m3, the viscosity worked out at 1.082 ± 0.034 mPa·s and the Normal boiling temperature was 78.28 ± 0.2 °C.
